The compounds below were run on U2OS_Bim cells (assay: Apoptosis inhibition assay (Bim-induced apoptosis, cell viability by ATP level)). Details: U2OS_Bim cells; means of duplicates; numbering of Tables 4a/4b; read-out: EC50.
Format: cell-based
Method in brief: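 Apoptosis was triggered by doxycycline (0.1 μg/mL) induction of Bim, one hour after compound addition to U2OS_Bim cells. Survival was measured after 24 h from cellular ATP (CellTiter-Glo), relative to DMSO, with zVAD at 20 μM as rescue control. Data are duplicate means, some estimated from preliminary results.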

EC50	Compound
0.001 to 1 µM	COc1ccc(Cn2cc(-c3nc(S(=O)(=O)CCC(OCc4ccccc4F)c4ccccc4)nc4sccc34)cc(F)c2=O)cc1F (centres unmarked) [Compound 302, 3-fluoro-1-(3-fluoro-4-methoxybenzyl)-5-(2-(3-(2-fluorobenzyloxy)-3-phenylpropylsulfonyl)thieno[2,3-d]pyrimidin-4-yl)pyridin-2 (1H)-one]
< 100 µM	COc1ccc(Cn2cc(-c3cc(C)nc(S(=O)(=O)CCC(C)=O)n3)cc(F)c2=O)cc1F [Compound 303, 3-fluoro-1-(3-fluoro-4-methoxybenzyl)-5-(6-methyl-2-((3-oxobutyl)sulfonyl)pyrimidin-4-yl)pyridin-2 (1H)-one]
< 100 µM	COc1ccc(Cn2cc(-c3cc(C)nc([S+]([O-])CCC(C)OCc4ccccc4F)n3)cc(F)c2=O)cc1F (centres unmarked) [Compound 304, 3-fluoro-1-(3-fluoro-4-methoxybenzyl)-5-(2-((3-((2-fluorobenzyl)oxy)butyl)sulfinyl)-6-methylpyrimidin-4-yl)pyridin-2 (1H)-one]
0.001 to 1 µM	COc1ccc(Cn2cc(-c3cc(C)nc(S(=O)(=O)CCC(C)OCc4ccccc4F)n3)cc(F)c2=O)cc1F (centres unmarked) [Compound 305, 3-fluoro-1-(3-fluoro-4-methoxybenzyl)-5-(2-((3-((2-fluorobenzyl)oxy)butyl)sulfonyl)-6-methylpyrimidin-4-yl)pyridin-2 (1H)-one]
0.001 to 1 µM	Cc1cc(-c2cnc(=O)n(Cc3ccc4c(c3)OCO4)c2)nc(S(=O)(=O)CCC(OCc2ccccc2F)c2ccccc2)n1 (centres unmarked) [Compound 307, 1′-(benzo[d][1,3]dioxol-5-ylmethyl)-2-((3-((2-fluorobenzyl)oxy)-3-phenylpropyl)sulfonyl)-6-methyl-[4,5′-bipyrimidin]-2′(1′H)-one]
< 100 µM	Cc1cc(-c2cc(F)c(=O)n(CC3CCCCC3)c2)nc([S+]([O-])CCC(OCc2ccc(F)cc2F)c2ccccc2)n1 (centres unmarked) [Compound 308, 1-(cyclohexylmethyl)-5-(2-(3-(2,4-difluorobenzyloxy)-3-phenylpropylsulfinyl)-6-methylpyrimidin-4-yl)-3-fluoropyridin-2 (1H)-one]
1 to 10 µM	Cc1cc(-c2cc(F)c(=O)n(CC3CCCCC3)c2)nc(S(=O)(=O)CCC(OCc2ccc(F)cc2F)c2ccccc2)n1 (centres unmarked) [Compound 309, 1-(cyclohexylmethyl)-5-(2-(3-(2,4-difluorobenzyloxy)-3-phenylpropylsulfonyl)-6-methylpyrimidin-4-yl)-3-fluoropyridin-2 (1H)-one]
1 to 10 µM	CCOc1cccc(Cn2cc(-c3cc(C)nc([S+]([O-])CCC(OCc4ccc(F)cc4F)c4ccccc4)n3)cc(F)c2=O)c1 (centres unmarked) [Compound 310, 5-(2-((3-((2,4-difluorobenzyl)oxy)-3-phenylpropyl)sulfinyl)-6-methylpyrimidin-4-yl)-1-(3-ethoxybenzyl)-3-fluoropyridin-2 (1H)-one]
0.001 to 1 µM	CCOc1cccc(Cn2cc(-c3cc(C)nc(S(=O)(=O)CCC(OCc4ccc(F)cc4F)c4ccccc4)n3)cc(F)c2=O)c1 (centres unmarked) [Compound 311, 5-(2-((3-((2,4-difluorobenzyl)oxy)-3-phenylpropyl)sulfonyl)-6-methylpyrimidin-4-yl)-1-(3-ethoxybenzyl)-3-fluoropyridin-2 (1H)-one]
< 100 µM	Cc1cc(-c2cc(F)c(=O)n(CC3CCNCC3)c2)nc(S(=O)(=O)CCC(OCc2ccc(F)cc2F)c2ccccc2)n1 (centres unmarked) [Compound 312, 5-(2-(3-(2,4-difluorobenzyloxy)-3-phenylpropylsulfonyl)-6-methylpyrimidin-4-yl)-3-fluoro-1-(piperidin-4-ylmethyl)pyridin-2 (1H)-one]
1 to 10 µM	Cc1cc(-c2cc(F)c(=O)n(CC3CCOCC3)c2)nc([S+]([O-])CCC(OCc2ccc(F)cc2F)c2ccccc2)n1 (centres unmarked) [Compound 313, 5-(2-(3-(2,4-difluorobenzyloxy)-3-phenylpropylsulfinyl)-6-methylpyrimidin-4-yl)-3-fluoro-1-((tetrahydro-2H-pyran-4-yl)methyl)pyridin-2 (1H)-one]
0.001 to 1 µM	Cc1cc(-c2cc(F)c(=O)n(CC3CCOCC3)c2)nc(S(=O)(=O)CCC(OCc2ccc(F)cc2F)c2ccccc2)n1 (centres unmarked) [Compound 314, 5-(2-(3-(2,4-difluorobenzyloxy)-3-phenylpropylsulfonyl)-6-methylpyrimidin-4-yl)-3-fluoro-1-((tetrahydro-2H-pyran-4-yl)methyl)pyridin-2 (1H)-one]
< 100 µM	Cc1cc(-c2cc(F)c(=O)n(Cc3ccc(Cl)c(Cl)c3)c2)nc([S+]([O-])CCC(OCc2ccc(F)cc2F)c2ccccc2)n1 (centres unmarked) [Compound 315, 1-(3,4-dichlorobenzyl)-5-(2-(3-(2,4-difluorobenzyloxy)-3-phenylpropylsulfinyl)-6-methylpyrimidin-4-yl)-3-fluoropyridin-2 (1H)-one]
1 to 10 µM	Cc1cc(-c2cc(F)c(=O)n(Cc3ccc(Cl)c(Cl)c3)c2)nc(S(=O)(=O)CCC(OCc2ccc(F)cc2F)c2ccccc2)n1 (centres unmarked) [Compound 316, 1-(3,4-dichlorobenzyl)-5-(2-(3-(2,4-difluorobenzyloxy)-3-phenylpropylsulfonyl)-6-methylpyrimidin-4-yl)-3-fluoropyridin-2 (1H)-one]
0.001 to 1 µM	Cc1cc(-c2cc(F)c(=O)n(Cc3ccc4c(c3)OCO4)c2)nc(S(=O)(=O)CCC(OCc2ccc(F)cc2F)c2ccccc2)n1 (centres unmarked) [Compound 317, 1-(benzo[d][1,3]dioxol-5-ylmethyl)-5-(2-((3-((2,4-difluorobenzyl)oxy)-3-phenylpropyl)sulfonyl)-6-methylpyrimidin-4-yl)-3-fluoropyridin-2 (1H)-one]
0.001 to 1 µM	Cc1cc(-c2cc(F)c(=O)n(Cc3ccc4c(c3)OCO4)c2)nc(S(=O)(=O)CCC(OCc2ccccc2F)c2ccccc2)n1 (centres unmarked) [Compound 318, 1-(benzo[d][1,3]dioxol-5-ylmethyl)-3-fluoro-5-(2-(3-(2-fluorobenzyloxy)-3-phenylpropylsulfonyl)-6-methylpyrimidin-4-yl)pyridin-2 (1H)-one]
0.001 to 1 µM	Cc1cc(-c2cc(F)c(=O)n(Cc3ccc4nsnc4c3)c2)nc(S(=O)(=O)CCC(OCc2ccccc2F)c2ccccc2)n1 (centres unmarked) [Compound 319, 1-(benzo[c][1,2,5]thiadiazol-5-ylmethyl)-3-fluoro-5-(2-(3-(2-fluorobenzyloxy)-3-phenylpropylsulfonyl)-6-methylpyrimidin-4-yl)pyridin-2 (1H)-one]
0.001 to 1 µM	Cc1cc(-c2cc(F)c(=O)n(Cc3cccc4c3OCO4)c2)nc(S(=O)(=O)CCC(OCc2ccccc2F)c2ccccc2)n1 (centres unmarked) [Compound 320, 1-(benzo[d][1,3]dioxol-4-ylmethyl)-3-fluoro-5-(2-(3-(2-fluorobenzyloxy)-3-phenylpropylsulfonyl)-6-methylpyrimidin-4-yl)pyridin-2 (1H)-one]
0.001 to 1 µM	COc1cc(Cn2cc(-c3cc(C)nc(S(=O)(=O)CCC(OCc4ccccc4F)c4ccccc4)n3)cc(F)c2=O)ccn1 (centres unmarked) [Compound 321, 3-fluoro-5-(2-(3-(2-fluorobenzyloxy)-3-phenylpropylsulfonyl)-6-methylpyrimidin-4-yl)-1-((2-methoxypyridin-4-yl)methyl)pyridin-2 (1H)-one]
0.001 to 1 µM	Cc1cc(-c2cc(F)c(=O)n(Cc3ccc4nc[nH]c4c3)c2)nc(S(=O)(=O)CCC(OCc2ccccc2F)c2ccccc2)n1 (centres unmarked) [Compound 322, 1-((1H-benzo[d]imidazol-6-yl)methyl)-3-fluoro-5-(2-(3-(2-fluorobenzyloxy)-3-phenylpropylsulfonyl)-6-methylpyrimidin-4-yl)pyridin-2 (1H)-one]
